# In patent US20070111968A1, “1-Aza-dibenzo[e,h]azulenes for the treatment of central nervous system diseases and disorders” (GLAXOSMITHKLINE ISTRAZIVACKI CENTAR ZAGREB D.O.O., priority 2003, published 2007):
# Assays:
# [1] = molecular target: T1, 5-HT2A receptor (Homo sapiens, UniProt P28223); assay: radioligand binding assay for 5-HT2A receptor ([3H]-ketanserin); conditions: competitive binding
# T1 construct: expressed in transfected cells; host or cells: CHO-K1 (or COS-7); alternatively human cortex tissue
# Protocol: (§1) The effect of the compounds of the present invention on the neurochemical steady state was determined by in vitro investigations such as a radionuclide-marked radioligand binding assay for 5-HT2A (Bonhaus D. W. Br. J. Pharmacol. 1995, 115:622; Saucier C. J. Neurochem. 1997, 68:1998) and 5-HT2C receptors (Wolf W. A. J. Neurochem. 1997, 69:1449), in vitro binding assay for σ1 receptor (Thomson W. and Donn R. Arthritis Res. 2002, 4: 302-306) and by in vivo investigations in a tail suspension test (Vogel H. G. and Vogel W. H. Drug Discovery and Evaluation Pharmacological Assays, Springer 1997, 304), in amphethamine-induced hyperlocomotion in mice (Millan M. J. et al, 1998 J. Pharmacol. Exp. Ther. 287: 167-186), in a forced swim test in mice (Porsolt R. D. et al. Arch. Int. Pharmacodyn. 1977, 229:327-336), in meta-chlorophenyl piperazine (m-CPP) test on rats (Drug Dev. Res. 1989, 18:119-144), and in apomorphine, tryptamine, norepinephrine (ATN) test in rats (Arch. Int. […]
# (§2) A small concentration of a radioligand having a great affinity for binding to a receptor was incubated with a tissue sample enriched with a certain receptor (1-5 mg of tissue) in a buffered medium (0.2-5 mL). […] When a binding balance was achieved, the receptors to which the radioligand was bound were separated from those to which said ligand was not bound, and the radioactivity of the receptor/radioligand complex was measured. […]
# [2] = molecular target: T2, 5-HT2C receptor (Homo sapiens, UniProt P28335); assay: radioligand binding assay for 5-HT2C receptor ([3H]mesulergine); conditions: competitive binding
# T2 construct: expressed in transfected cells; host or cells: CHO-K1 (or COS-7); alternatively choroid plexus tissue
# T2 sequence (P28335 33-458): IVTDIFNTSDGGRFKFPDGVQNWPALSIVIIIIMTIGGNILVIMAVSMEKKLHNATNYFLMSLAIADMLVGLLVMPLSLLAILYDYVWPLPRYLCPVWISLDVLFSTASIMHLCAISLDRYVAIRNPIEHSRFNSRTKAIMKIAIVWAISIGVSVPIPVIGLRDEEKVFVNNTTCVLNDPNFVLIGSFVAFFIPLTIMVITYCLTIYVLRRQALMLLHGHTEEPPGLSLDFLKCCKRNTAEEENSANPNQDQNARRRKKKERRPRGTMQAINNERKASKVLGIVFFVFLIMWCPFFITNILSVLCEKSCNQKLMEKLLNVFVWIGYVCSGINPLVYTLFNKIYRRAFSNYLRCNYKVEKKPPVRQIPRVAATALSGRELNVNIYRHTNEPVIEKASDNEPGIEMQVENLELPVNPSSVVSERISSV
# Protocol: as §1, §2
# T1 sequence (P28223 whole entry): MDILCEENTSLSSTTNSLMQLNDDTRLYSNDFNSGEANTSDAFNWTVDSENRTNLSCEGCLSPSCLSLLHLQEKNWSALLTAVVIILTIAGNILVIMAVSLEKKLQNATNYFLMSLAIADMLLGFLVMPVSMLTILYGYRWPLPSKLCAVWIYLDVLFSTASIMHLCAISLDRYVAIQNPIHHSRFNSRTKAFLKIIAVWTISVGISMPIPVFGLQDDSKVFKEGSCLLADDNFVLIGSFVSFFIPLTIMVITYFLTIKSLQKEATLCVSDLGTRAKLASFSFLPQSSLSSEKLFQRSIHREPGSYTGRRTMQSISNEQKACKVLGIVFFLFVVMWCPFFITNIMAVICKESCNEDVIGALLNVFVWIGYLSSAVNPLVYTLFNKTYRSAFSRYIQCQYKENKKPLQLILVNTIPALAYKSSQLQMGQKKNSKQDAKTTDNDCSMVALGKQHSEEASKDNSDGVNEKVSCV
smiles,measurement,setting,value
"CN(C)CCOCc1cc2c([nH]1)-c1ccccc1Sc1ccccc1-2 [dimethyl-[2-(1H-8-thia-1-aza-dibenzo[e,h]azulen-2-ylmethoxy)-ethyl]-amine]",IC50,"[1]; human cortex or recombinant 5-HT2A in CHO-K1, read-out: binding affinity to 5-HT2A serotonin receptor expressed as IC50 value",< 200 nM
same,Ki,"[1]; human cortex or recombinant 5-HT2A in CHO-K1, read-out: binding affinity to 5-HT2A serotonin receptor, Ki value",< 100 nM
same,IC50,"[2]; choroid plexus or recombinant 5-HT2C in CHO-K1, read-out: binding affinity to 5-HT2C serotonin receptor expressed as IC50 value",< 200 nM
same,Ki,"[2]; choroid plexus or recombinant 5-HT2C in CHO-K1, read-out: binding affinity to 5-HT2C serotonin receptor, Ki value",< 100 nM
